Measurements as given in patent publication US20110105389A1 (priority 2009, published 2011).

Tested on: male ob/ob mice
Experiment: Subchronic oral administration in male ob/ob mice (7, 15 and 28 day protocols), Method B15
Assay type: in vivo, mouse
From the text: B15. Effects of Subchronic Administration of Compounds of the Invention in Male ob/ob Mice
The objective of this study is to determine the subchronic effects of test compounds on body weight change, food and water consumption, as well as glucose homeostasis and insulin levels in male ob/ob mice upon oral administration for up to 7 days. The male ob/ob mouse was selected as a type 2 diabetes (T2DM) and genetically defined obesity model which is sensitive to the effect of different insulin sensitizers in acute as well as in chronic settings.
A similar study in this model was conducted to determine the acute and subchronic effects of test compounds on body weight change, food and water consumption, glucose homeostasis, insulin and glucagon levels, as well as lipid profile and brain penetration upon oral administration to the male ob/ob mice for up to 28 days.
Mice were individually housed in rodent cages with soft wood bedding on the bottom and equipped with water bottles. All cages were clearly labeled with a cage card indicating study number, group, animal number and dose level. Each animal was uniquely identified by an animal number marked on their tail with indelible ink. The animal number was designated the day the animals arrive at the animal facility. The animal room environment was controlled (targeted ranges: temperature 22±2° C.; relative humidity 50±10%; light/dark cycle: 12 hours light, 12 hours dark, lights on from 06:00 AM to 06:00 PM). A regular rodent diet (Charles River 5075 rodent chow, Purina Mills, Canada) was provided to the animals ad libitum. Municipal tap water was provided to the animals ad libitum via water bottles. Fresh tap water was provided after water bottle weighing. An acclimation period of approximately 7 days for all groups was allowed between the receipt of animals and the start of treatment to accustom the […] to the laboratory environment. On experimental Day −7, animals were stratified according to body weight and glycemia into an appropriate number of groups of 5 or 10 animals and two groups of 5 animals.
Test compounds were administered, as a solution, orally, at the doses indicated. The dose volume will be 5 mL/kg/day. Groups were dosed once daily around 4:00 p.m. As positive controls, rosiglitazone (Avandia®), an approved anti-diabetic drug of the thiazolidinediones family (ppar gamma agonist) which has been specifically reported to normalize glycemia in the ob/ob mouse model (Liu et al., J. Med. Chem.; 46: 2093-2103, 2003) was used. The CB1 receptor antagonist rimonabant (Accomplia®) was reported to reduce body weight and food intake in different models of Type 2 diabetes and obesity and was also employed (Rasmussen and Huskinson Behavioral Pharmacol. 2008, 19, 735-742,; Bobo, G.; et al. Hepathology 2007, 46, 122-129; Di Marzo; et al., Nature 2001, 410, 822-825).
For, the study animals, the data collected from study Day −7 to Day 8 were reported. Body weights were recorded for all animals on Day −7 prior to initiation of dosing, at the time of group assignment and daily throughout the study period (Day 1-8). Food and water intake was Measured 4 hrs post-dosing, 2 hrs after the beginning of the dark cycle (around 8:00 p.m.) on Day 1 and 7 (Subset A) as well as on Day 2 and 8 (Subset B) and then daily in 24 h intervals from Day 3 through Day 8. On Day 1 (Subset A) and Day 2 (Subset B), blood was sampled from 3 animals/group from Groups 2 through 4 into EDTA coated tubes (K2-EDTA microtainer tubes, Becton Dickinson) from a tail vein (˜100 μL) 4 hrs post-dose for PK analysis. Blood was centrifuged at 4000 rpm for 10 min. at 4° C., and the resulting plasma transferred into non-coated tubes and stored at −80° C. until analysis. The same procedures were repeated on Day 7 (Subset A) and Day 8 (Subset B) 24 hrs post-dose. […]

[1] = vs vehicle control mice, FIG. 13

In the case of `CC(C)[C@@H]1NCCOc2ccccc2C#CCNC(=O)[C@@H](Cc2ccccc2)NC(=O)[C@H](C(C)O)N(C)C1=O` (stereo partly shown) [Compound 1712], the “acute cumulative food intake” value (over a 2 hr period, fasted animals, vs vehicle control, FIG. 11) is reported as “significantly reduced”.
`CC(C)[C@@H]1NCCOc2ccccc2C2CCC(C2)NC(=O)[C@@H](Cc2ccccc2)NC(=O)[C@H](C(C)O)N(C)C1=O` (stereo partly shown) [Compound 1848] was tested, and the “blood glucose levels during oral glucose tolerance test” value (75 mg/kg, vs vehicle control) was “significant decrease”, the “reduction in cumulative food intake” value (po, 75 mg/kg, 336 h) was 11.9% and the insulin sensitivity (treated ob/ob mice) was “improvement”. For the same compound, the “free fatty acids (FFAs)” value [1] was “significantly reduced”, the glucagon [1] was “significantly reduced” and the insulin [1] was “significantly reduced”. The non-fasting glucose [1] was “significantly reduced”, the “total cholesterol level significantly reduced” value [1] was “not” and the “triglycerides level significantly reduced” value [1] was “not”.
